ChEMBL document CHEMBL5338813 (J Med Chem, 2023)
The source made the active and inactive calls. The calls are words filed in the database; no cut-off is given here.

Key:
[1] = biological target: Voltage-gated inwardly rectifying potassium channel KCNH2 (Homo sapiens, UniProt Q12809); test: (§1) Displacement of [3H]Dofetilide from human ERG at 30 uM by automated patch clamp assay relative to control; settings: 30 µM
[2] = Metabolic stability in mouse liver microsomes assessed as intrinsic clearance measured upto 60 mins; assay type: ADME, Microsome; settings: read-out: CLH
[3] = Metabolic stability in mouse liver microsomes assessed as half life measured upto 60 mins; assay type: ADME, Microsome; settings: 1 h
[4] = Metabolic stability in mouse intestinal S9 fraction assessed as intrinsic clearance measured upto 60 mins; assay type: ADME, subcellular, Intestine; settings: read-out: CLH
[5] = Metabolic stability in mouse intestinal S9 fraction assessed as half life measured upto 60 mins; assay type: ADME, subcellular, Intestine; settings: s9, 1 h
[6] = Plasma protein binding in mouse at 1 uM incubated for 30 mins by LC-MS/MS analysis; assay type: ADME, cell-free; settings: 0.5 h
[7] = Plasma protein binding in human at 1 uM incubated for 30 mins by LC-MS/MS analysis; assay type: ADME, cell-free; settings: 0.5 h
[8] = AUC in mouse plasma at 5 mg/kg, po measured upto 24 hrs by LC-MS/MS analysis; assay type: ADME, organism-based; design: dose 5 mg/kg, time < 24 hrs, route po; settings: in vivo
[9] = AUC in mouse Jejunum at 5 mg/kg, po measured upto 24 hrs by LC-MS/MS analysis; assay type: ADME, organism-based; design: dose 5 mg/kg, time < 24 hrs, route po; settings: in vivo
[10] = Cmax in mouse plasma at 5 mg/kg, po measured upto 24 hrs by LC-MS/MS analysis; assay type: ADME, organism-based; design: time < 24 hrs, dose 5 mg/kg, route po; settings: in vivo
[11] = Cmax in mouse Jejunum at 5 mg/kg, po measured upto 24 hrs by LC-MS/MS analysis; assay type: ADME, organism-based; design: dose 5 mg/kg, time < 24 hrs, route po; settings: in vivo
[12] = Tmax in mouse plasma at 5 mg/kg, po measured upto 24 hrs by LC-MS/MS analysis; assay type: ADME, organism-based; settings: in vivo
[13] = Tmax in mouse Jejunum at 5 mg/kg, po measured upto 24 hrs by LC-MS/MS analysis; assay type: ADME, organism-based; settings: in vivo
[14] = system: Cryptosporidium parvum; test: Antiparasitic activity against Cryptosporidium parvum infected in human HCT-8 cells assessed as parasitic growth inhibition incubated for 48 hrs by fluorescence microscopic analysis; assay type: functional, organism-based; settings: HCT-8, 48 h
[15] = system: HCT-8; test: Cytotoxicity against human HCT-8 cells assessed as reduction in cell number upto 50 uM incubated for 48 hrs by; assay type: toxicity, cell-based; settings: hct-8, 48 h
[16] = biological target: T1, hERG (KCNH2) (Homo sapiens, UniProt Q12809); test: as §1; settings: probe [3H]Dofetilide, read-out: Activity
T1 sequence (Q12809 whole entry): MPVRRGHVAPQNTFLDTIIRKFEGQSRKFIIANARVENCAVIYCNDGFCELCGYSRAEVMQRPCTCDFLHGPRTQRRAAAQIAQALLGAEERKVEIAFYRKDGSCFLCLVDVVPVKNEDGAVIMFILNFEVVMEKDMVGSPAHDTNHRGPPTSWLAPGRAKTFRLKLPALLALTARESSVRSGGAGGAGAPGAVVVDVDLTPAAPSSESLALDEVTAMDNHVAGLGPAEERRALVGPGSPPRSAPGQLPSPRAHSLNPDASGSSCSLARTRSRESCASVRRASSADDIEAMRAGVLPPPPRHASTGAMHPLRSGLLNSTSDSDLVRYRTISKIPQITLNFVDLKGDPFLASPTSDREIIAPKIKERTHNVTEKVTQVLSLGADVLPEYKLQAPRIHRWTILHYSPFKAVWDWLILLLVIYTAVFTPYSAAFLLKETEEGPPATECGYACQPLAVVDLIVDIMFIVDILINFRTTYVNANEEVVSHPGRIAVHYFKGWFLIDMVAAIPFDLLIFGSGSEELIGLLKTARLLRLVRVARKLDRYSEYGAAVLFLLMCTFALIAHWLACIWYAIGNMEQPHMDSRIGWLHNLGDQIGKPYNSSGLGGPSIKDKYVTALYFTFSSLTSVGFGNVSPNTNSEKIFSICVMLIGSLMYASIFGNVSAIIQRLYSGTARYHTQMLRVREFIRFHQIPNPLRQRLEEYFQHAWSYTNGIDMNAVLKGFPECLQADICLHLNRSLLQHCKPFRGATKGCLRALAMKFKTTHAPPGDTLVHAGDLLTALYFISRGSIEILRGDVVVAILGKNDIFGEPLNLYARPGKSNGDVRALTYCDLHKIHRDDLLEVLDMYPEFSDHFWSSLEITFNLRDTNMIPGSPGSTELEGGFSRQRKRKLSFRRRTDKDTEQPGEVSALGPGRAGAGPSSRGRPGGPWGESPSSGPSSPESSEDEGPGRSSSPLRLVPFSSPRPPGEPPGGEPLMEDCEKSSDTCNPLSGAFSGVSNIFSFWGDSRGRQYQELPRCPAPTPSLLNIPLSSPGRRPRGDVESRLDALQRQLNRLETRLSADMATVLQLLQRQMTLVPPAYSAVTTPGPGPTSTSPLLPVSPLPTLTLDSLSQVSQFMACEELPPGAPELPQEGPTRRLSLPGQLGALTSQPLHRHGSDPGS

[17] = biological target: T1, hERG (KCNH2); test: Inhibition of human ERG expressed in CHO cells at 1 uM by automated patch clamp assay relative to control; assay type: cell-based; settings: CHO cells that express hERG
[18] = biological target: T1, hERG (KCNH2); test: Inhibition of human ERG expressed in CHO cells at 10 uM by automated patch clamp assay relative to control; assay type: cell-based; settings: CHO cells that express hERG
[19] = biological target: T1, hERG (KCNH2); test: Inhibition of human ERG expressed in CHO cells at 30 uM by automated patch clamp assay relative to control; assay type: cell-based; settings: CHO cells that express hERG
[20] = system: Cryptosporidium parvum; test: Antiparasitic activity against Cryptosporidium parvum infected in mouse assessed as reduction in parasitic growth at >= 5 mg/kg, po pre-infected with parasite for 7 days followed by compound addition twice daily for 4 days; assay type: functional; design: scale not given: the % may be the effect or the level left; settings: time 4 day
[21] = system: Cryptosporidium parvum; test: Antiparasitic activity against Cryptosporidium parvum infected in mouse assessed as relapse in parasite growth at >=5 mg/kg, po pre-infected with parasite for 7 days followed by compound addition twice daily for 4 days; assay type: functional, organism-based; settings: time 4.0 day
[22] = system: Cryptosporidium parvum; test: Antiparasitic activity against Cryptosporidium parvum infected in mouse assessed as relapse in parasite growth at 5 mg/kg, po pre-infected with parasite for 7 days followed by compound addition twice daily for 4 days; assay type: functional, organism-based; settings: time 4.0 day

Chain of Voltage-gated inwardly rectifying potassium channel KCNH2 (Q12809 whole entry): as above

## O=C(Cc1ccc(Cl)c(Cl)c1)N1CCN(c2ccc3nncn3n2)CC1
[1]
  Activity: 46%
[2]
  microsomal CLint: 85.2 µL/min/mg
[3]
  t1/2: 1.38 h
[4]
  microsomal CLint: < 5.8 µL/min/mg
[5]
  t1/2: > 2 h
[6]
  PPB: 92.7%
[7]
  PPB: 98.2%
[8]
  AUC: 3387 ng·h/mL
[9]
  AUC: 3013 ng·h/g
[10]
  Cmax: 532 ng/mL
[11]
  Cmax: 317 ng/g
[12]
  Tmax: 1 h
[13]
  Tmax: 1 h

## O=C(Cc1ccc(F)c(C(F)F)c1)N1CCN(c2ccc3nncn3n2)CC1
[14]
  EC50: 470 nM
[15]
  Activity: Non-Toxic
[16]
  inhibition at 30 µM: 23%

## O=C(Cc1ccc(F)c(C(F)(F)F)c1)N1CCN(c2ccc3nncn3n2)CC1
[14]
  EC50: 70 nM
[15]
  Activity: Non-Toxic
[1]
  Activity: 43%
[17]
  inhibition at 1 µM: 15%
[18]
  inhibition at 10 µM: 58%
[19]
  inhibition at 30 µM: 84%
[2]
  microsomal CLint: < 57.8 µL/min/mg
[3]
  t1/2: > 2 h
[4]
  microsomal CLint: < 5.8 µL/min/mg
[5]
  t1/2: > 2 h
[6]
  PPB: 51.8%
[8]
  AUC: 3300 ng·h/mL
[9]
  AUC: 2998 ng·h/g
[10]
  Cmax: 568 ng/mL
[11]
  Cmax: 299 ng/g
[12]
  Tmax: 1 h
[13]
  Tmax: 2 h
[20]
  Activity: >99%
[21]
  Activity: Active
[22]
  Activity: inactive

## O=C(Cc1ccc(F)c(CF)c1)N1CCN(c2ccc3nncn3n2)CC1
[14]
  EC50: 760 nM
[15]
  Activity: Non-Toxic
[16]
  inhibition at 30 µM: 38%

## O=C(Cc1ccccc1Cl)N1CCN(c2ccc3nncn3n2)CC1
[14]
  EC50: > 25000 nM
[15]
  Activity: Non-Toxic

## COc1cc(CC(=O)N2CCN(c3ccc4nncn4n3)CC2)ccc1F
[14]
  EC50: 1000 nM
[15]
  Activity: Non-Toxic

## O=C(Cc1ccc(F)c([N+](=O)[O-])c1)N1CCN(c2ccc3nncn3n2)CC1
[14]
  EC50: 620 nM
[15]
  Activity: Non-Toxic

## O=C(Cc1ccc(Br)cc1)N1CCN(c2ccc3nncn3n2)CC1
[14]
  EC50: 1100 nM
[15]
  Activity: Non-Toxic

## O=C(Cc1cc(F)cc(Cl)c1)N1CCN(c2ccc3nncn3n2)CC1
[14]
  EC50: 880 nM
[15]
  Activity: Non-Toxic

## Cc1cc(CC(=O)N2CCN(c3ccc4nncn4n3)CC2)cc(C(F)(F)F)c1F
[14]
  EC50: 70 nM
[15]
  Activity: Non-Toxic

## O=C(Cc1cc(C(F)(F)F)cc(C(F)(F)F)c1)N1CCN(c2ccc3nncn3n2)CC1
[14]
  EC50: 320 nM
[15]
  Activity: Non-Toxic
[1]
  Activity: 54%
